Structures are written as SMILES. pIC50, pKi: −log10 of the molar value.

Assay [1] has as its target Human immunodeficiency virus type 1 protease (Human immunodeficiency virus 1, UniProt Q72874). As to the kind of experiment: Inhibitory activity against HIV-1 protease. The conditions noted are these: read-out: Ki app.
Another assay deals with MOLT-4. In words: Compound was tested for in vitro inhibitory activity against HIV replication in MOLT-4 cells. The conditions noted are these: Homo sapiens. It counts as functional, cell-based.

For `CC(=O)N[C@@H](C(=O)N[C@@H](Cc1ccccc1)[C@@H](O)C[C@@H](Cc1ccccc1)c1nc(C(C)C)c[nH]1)C(C)C`, the pKi (commonly the negative decadic logarithm of the Ki, by convention in mol/L) in assay [1] is 6.82.
Consider `CC(C)c1cnc([C@H](Cc2ccccc2)C[C@H](O)[C@H](Cc2ccccc2)NC(=O)[C@@H](NC(=O)OCc2ccccc2)C(C)C)[nH]1`, for which the pIC50 – broadly, the IC50 on a negative log10 scale, so that one unit is a factor of ten – in the assay on MOLT-4 is 7.00. The pKi in assay [1] was 9.22.
In the case of `CCC(O)c1cnc([C@H](Cc2ccccc2)C[C@H](O)[C@H](Cc2ccccc2)NC(=O)OC(C)(C)C)s1` (some centres not stated), the pKi in assay [1] was 6.14.
As for `CCCc1cnc([C@H](Cc2ccccc2)C[C@H](O)[C@H](Cc2ccccc2)NC(=O)OC(C)(C)C)s1` (stereo in doubt; form 3), the negative logarithm of the Ki (pKi) in assay [1] was 5.34.
Consider `COC(=O)N[C@H](C(=O)N[C@@H](Cc1ccccc1)[C@@H](O)C[C@@H](Cc1ccccc1)c1nc(C(C)C)c[nH]1)C(C)C`, for which the pIC50 in the assay on MOLT-4 is 7.30. Besides, the negative-log Ki (pKi) in assay [1] is 8.68.
In the case of `CC(C)(C)OC(=O)N[C@@H](Cc1ccccc1)[C@@H](O)C[C@@H](Cc1ccccc1)c1ncc(C(=O)c2ccccc2)[nH]1`, the pKi in assay [1] is 5.11.
On the same count and under the same terms, under `CC(C)(C)OC(=O)N[C@@H](Cc1ccccc1)[C@@H](O)C[C@@H](Cc1ccccc1)c1nc(C(=O)C2CCCC2)c[nH]1` stands 6.82; under `CC(C)c1cnc([C@H](Cc2ccccc2)C[C@H](O)[C@H](Cc2ccccc2)NC(=O)[C@@H](NC(=O)OC(C)(C)C)C(C)C)[nH]1`, 6.52; under `CC(C)c1c[nH]c([C@H](Cc2ccccc2)C[C@H](O)[C@H](Cc2ccccc2)NC(=O)[C@@H](NC=O)C(C)C)n1`, 8.34.
In turn, `CC(=O)N[C@H](C(=O)N[C@@H](Cc1ccccc1)[C@@H](O)C[C@@H](Cc1ccccc1)c1ncc(C(C)C)[nH]1)C(C)C` gave a negative-log IC50 (pIC50) in the assay on MOLT-4 of 7.40. Moreover, the negative logarithm of the Ki (pKi) in assay [1] is 9.00.
On to `CCCc1cnc([C@H](Cc2ccccc2)C[C@H](O)[C@H](Cc2ccccc2)NC(=O)OC(C)(C)C)s1` (stereo in doubt; form 1), for which the pKi in assay [1] is 6.15.
Same read-out and setting: the same measure for `CNC(=O)c1c[nH]c([C@H](Cc2ccccc2)C[C@H](O)[C@H](Cc2ccccc2)NC(=O)OC(C)(C)C)n1`: 5.43.
Turning to `CC(C)(C)OC(=O)N[C@@H](Cc1ccccc1)[C@@H](O)C[C@@H](Cc1ccccc1)c1nc[nH]n1`, in assay [1], the negative-log Ki (pKi) is 5.24.
Molecule `CC(C)OC(=O)N[C@H](C(=O)N[C@@H](Cc1ccccc1)[C@@H](O)C[C@@H](Cc1ccccc1)c1ncc(C(C)C)[nH]1)C(C)C` had a pIC50 with MOLT-4 of 6.87. Moreover, the pKi in assay [1] is 8.10.
In turn, `CCOC(=O)N[C@H](C(=O)N[C@@H](Cc1ccccc1)[C@@H](O)C[C@@H](Cc1ccccc1)c1nc(C(C)C)c[nH]1)C(C)C` showed a negative logarithm of the IC50 (pIC50) with MOLT-4 of 7.11. Further, the pKi in assay [1] was 8.55.
`CC(C)(C)OC(=O)N[C@@H](Cc1ccccc1)[C@@H](O)C[C@@H](Cc1ccccc1)c1nccs1`: in assay [1], the pKi was 5.52.
On to `CC(C)c1c[nH]c([C@H](Cc2ccccc2)C[C@H](O)[C@H](Cc2ccccc2)NC(=O)[C@@H](NC(=O)OCc2ccccc2)[C@H](C)O)n1`, for which, in the assay on MOLT-4, the negative logarithm of the IC50 (pIC50) was 7.96. Also, the pKi in assay [1] is 8.85.
As for `COC(=O)c1cnc([C@H](Cc2ccccc2)C[C@H](O)[C@H](Cc2ccccc2)NC(=O)OC(C)(C)C)[nH]1`, the pKi in assay [1] is 5.74.
With `CCc1cnc([C@H](Cc2ccccc2)C[C@H](O)[C@H](Cc2ccccc2)NC(=O)OC(C)(C)C)s1`, the pKi in assay [1] is 5.70.
For the molecule `CCC(=O)c1cnc([C@H](Cc2ccccc2)C[C@H](O)[C@H](Cc2ccccc2)NC(=O)OC(C)(C)C)s1`, the pKi in assay [1] was 5.43.
Consider `CCCCc1cnc([C@H](Cc2ccccc2)C[C@H](O)[C@H](Cc2ccccc2)NC(=O)OC(C)(C)C)s1`, for which the pKi in assay [1] is 4.59.
Same read-out and setting: the same measure for `CCCc1cnc([C@H](Cc2ccccc2)C[C@H](O)[C@H](Cc2ccccc2)NC(=O)OC(C)(C)C)s1` (stereo in doubt; form 2): 6.39.
On to `CCC(CC)C(=O)c1cnc([C@H](Cc2ccccc2)C[C@H](O)[C@H](Cc2ccccc2)NC(=O)OC(C)(C)C)[nH]1`, for which the pIC50 in the assay on MOLT-4 is 6.07. For the same molecule, the pKi in assay [1] is 7.34.
Molecule `CCC(C)C(=O)c1c[nH]c([C@H](Cc2ccccc2)C[C@H](O)[C@H](Cc2ccccc2)NC(=O)OC(C)(C)C)n1` (some centres not stated) gave a pIC50 in the assay on MOLT-4 of 6.02. Also, in assay [1], the pKi is 7.28.

For the origin of these results see ChEMBL document CHEMBL1128000, “Synthesis and antiviral activity of a novel class of HIV-1 protease inhibitors containing a heterocyclic P1-P2 amide bond isostere” (Bioorg Med Chem Lett, 1994).
